Results on one compound are retold here after ChEMBL document CHEMBL3853262 (Medchemcomm, 2016).

Type in all cases: functional, cell-based
The test system of one assay is BJ. Nature of the assay: Proapoptotic activity in human BJ cells by annexin V-FITC/propidium iodide staining-based capillary cytometric method.
Another assay has as its system BXPC-3. Briefly: Proapoptotic activity in human BxPC3 cells by annexin V-FITC/propidium iodide staining-based capillary cytometric method.
In a further assay the test system is ASPC1. Briefly: Proapoptotic activity in human AsPC1 cells by annexin V-FITC/propidium iodide staining-based capillary cytometric method.
A further assay relates to NTERA-2-cl-D1. Briefly: Proapoptotic activity in human NT2/D1 cells by annexin V-FITC/propidium iodide staining-based capillary cytometric method.

As usually defined, the EC50 is the concentration needed to bring the measured effect to its halfway point. Regarding `COc1ccc2[nH]c(C(=O)Nc3cccc(-c4c[nH]c(N)n4)c3)cc2c1`, the EC50 with BJ worked out at 31 µM; in the assay on BXPC-3, 53 µM; in the assay with ASPC1 it was 52 µM; in the assay with NTERA-2-cl-D1 it was 16 µM.
